Measurements published in patent US20110269817A1, “COMPOSITIONS AND METHODS RELATED TO SIRT1 FUNCTION” (The Regents of the University of California, priority 2008, published 2011).
“Also recorded” adds a separate entry of the source. Like-named read-outs stand apart in the source and are kept apart here.

How the values were obtained:
CLOCK-SIRT1 interaction = CLOCK-SIRT1 interaction (coimmunoprecipitation) in transfected JEG3 cells; format: cell-based, human; conditions: treated 1, 2 and 6 h, 1 mM NAD+, 10 mM glucose, 1 mM pyruvate, 100 μM DFO, 100 μM resveratrol, 120 μM splitomicin
Protocol: The effect of various agents on the CLOCK-SIRT1 interaction was analyzed. […] JEG3 cells were cultured in BME containing 10% FBS and transfected with Myc-CLOCK, Myc-BMAL1, and Flag-SIRT1 constructs. Negative control (NC) represents cells transfected only with Myc-CLOCK and Myc-BMAL1. 24 h after transfection cells were replated, allowed to readhere for another 16 hours, and treated with indicated reagents for 1, 2 and 6 hours. Here the results with 6 h treatment are shown, the same results were obtained at 1 h and 2 h. Nuclear extracts were processed as previously described (Hirayama et al. 2007). This experiment was performed 3 times and a representative result is shown.
Legend: Lane 1: control (C); lane 2: 50% horse serum (HS); lane 3: 1 mM NAD^+ (NAD^+); lane 4: 10 mM glucose (Glc); lane 5: 1 mM pyruvate (Pyr); 6: 100 μM DFO (DF); lane 7: 100 μM resveratrol; (Res) lane 8:120 μM splitomicin (Split). Lane 9: negative control (NC).

SIRT1 = biological target: T1, SIRT1 (Homo sapiens, UniProt Q96EB6); test: BMAL1 deacetylation by SIRT1 in JEG3 cells transfected with Myc-CLOCK, Flag-Myc-BMAL1 and SIRT1-HA; format: cell-based; conditions: 1 mM NAD+ or 10 mM NAM for 16 hr
T1 construct: expressed in transfected cells; host or cells: JEG3
T1 sequence (Q96EB6 1-747): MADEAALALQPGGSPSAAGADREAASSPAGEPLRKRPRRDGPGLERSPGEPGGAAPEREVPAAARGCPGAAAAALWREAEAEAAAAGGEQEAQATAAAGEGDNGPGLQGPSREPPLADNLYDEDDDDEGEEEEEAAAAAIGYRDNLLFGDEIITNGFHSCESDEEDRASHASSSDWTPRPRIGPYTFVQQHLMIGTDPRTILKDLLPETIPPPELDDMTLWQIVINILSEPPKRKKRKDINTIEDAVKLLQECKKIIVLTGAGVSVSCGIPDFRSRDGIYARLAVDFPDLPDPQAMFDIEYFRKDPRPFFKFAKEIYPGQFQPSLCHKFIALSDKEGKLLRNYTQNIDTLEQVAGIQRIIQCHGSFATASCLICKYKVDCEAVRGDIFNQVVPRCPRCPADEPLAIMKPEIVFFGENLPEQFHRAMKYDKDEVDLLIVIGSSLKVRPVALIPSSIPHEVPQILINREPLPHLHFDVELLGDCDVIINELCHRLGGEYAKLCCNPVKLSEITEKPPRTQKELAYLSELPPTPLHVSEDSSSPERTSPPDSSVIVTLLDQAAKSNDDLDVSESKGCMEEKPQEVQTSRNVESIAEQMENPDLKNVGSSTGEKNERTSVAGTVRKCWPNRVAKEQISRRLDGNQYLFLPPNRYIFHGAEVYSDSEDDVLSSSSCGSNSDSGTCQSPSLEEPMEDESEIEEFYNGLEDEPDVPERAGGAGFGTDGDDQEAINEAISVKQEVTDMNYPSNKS
Protocol: (D) Deacetylation of BMAL1 by SIRT1 is NAD^+ dependent manner. JEG3 cells transfected with Myc-CLOCK and Flag-Myc-BMAL1 and SIRT1-HA were treated with 1 mM NAD^+ or 10 mM NAM for 16 hr before harvest. Immunoprecipitated BMAL1 proteins by FLAG antibody were probed with acetylated BMAL1 antibody. SIRT1 protein amount was detected by SIRT1 antibody.
(§1) Recently we have reported that BMAL1 is rhythmically acetylated by CLOCK and that this event is essential for control of circadian function (Hirayama et al., 2007). We have generated an antibody that specifically recognizes acetylated BMAL1 at Lys537 (FIG. 10). Because of the interplay between CLOCK and SIRT1, we suspected that the deacetylase that could regulate the dynamic levels of BMAL1 acetylation could be SIRT1. To identify which class of HDAC is responsible for deacetylation of BMAL1, we treated cultured cells expressing Myc-CLOCK and Flag-Myc-BMAL1 with class I and II inhibitor, trichostatin A (TSA), and/or class III inhibitor, NAM, for 6 hr and 16 hr, respectively. […] We then coexpressed BMAL1 with CLOCK and confirmed that the anti-AcBMAL1 antibody readily recognizes CLOCK-induced acetylation at Lys537 (FIG. 6B). […] We also confirmed that SIRT1 readily deacetylates BMAL1 in an in vitro deacetylation assay (FIG. 11).

[1] = system: dbp expression levels in WT MEFs; test: dbp circadian expression in serum-shocked WT MEFs treated with SIRT1 inhibitors, quantitative PCR; format: cell-based, mouse
Protocol: (A) Dbp expression levels in MEFs either treated with SIRT1 inhibitors (10 mMNAM or […]) or not were analyzed by quantitative PCR. The value at time 20 in MEFs without treatment was set to 1.
(§2) MEFs were generated from WT or homozygous Sirt1−/− sibling mice and cultured in DMEM (4.5 g/l glucose) supplemented with 7.5% newborn bovine serum, 2.5% FBS, and antibiotics. JEG3 cells were grown in Basal Medium Eagle supplemented with 10% FBS and antibiotics.
Each quantitative real-time RT-PCR was performed using the Chromo4 real time detection system (BIO-RAD). The PCR primers for mDbp mRNA, mPer2 mRNA, mCry 1 mRNA, 18S rRNA, Dbp UP, Dbp E-box, Dbp 30R, and mSIRT1 mRNA were described (Ripperger and Schibler, 2006; Rodgers et al., 2005; Yamamoto et al., 2004). PCR primers for Dbp TSS were designed using Real-Time PCR Primer Design (https://www.genscript.com/ssl-bin/app/primer), and the sequences are available upon request. For a […] PCR, 50 ng of cDNA template was mixed with the primers to final concentrations of 200 nM and […] of iQ SYBR Green Supermix (BIO-RAD), respectively. The reaction was first incubated at 95° C. for 3 min, followed by 40 cycles at 95° C. for 30 s and 60° C. for 1 min.

[2] = system: histone H3 Lys9/Lys14 acetylation at the Dbp transcription start site; test: ChIP assay of histone H3 (Lys9/Lys14) acetylation at dbp TSS in serum-shocked MEFs; format: cell-based, mouse; conditions: WT MEFs after serum shock, 10 mM NAM or
Protocol: (B-D) Crosslinked cell extracts were isolated from MEF without treatment (B) or with SIRT1 inhibitors, 10 mMNAM (C), or […] (D) at indicated time points after serum shock, subjected to ChIP assay, and analyzed by quantitative PCR with dbp TSS primers (See FIG. 4C). Results of semiquantitative PCR are also shown at the bottom of each experiment. The value at time 16 in MEFs without treatment was set to 1. All data presented are the means±SEM of three independent samples.
Conventional ChIP assay was used for histones from MEFs (Yamamoto et al., 2004). For nonhistone proteins, dual crosslinking ChIP assay (Nowak et al., 2005) was used with slight modifications. After serum shock, cells were washed three times with room temperature PBS, then PBS/1 mM MgCl2 was added. Disuccinimidyl Glutalate (DSG) was added to a final concentration of 2 mM for crosslinking. After 45 min at room temperature, formaldehyde was added to a final concentration of 1% (v/v) and cells incubated for 15 min. […]
We analyzed the acetylation at Lys9 and Lys14 of histone H3 because we had previously found these to be preferential sites of CLOCK's HAT activity (Doi et al., 2006), and also because SIRT1 deacetylase function was described to be targeted to these lysines (Imai et al., 2000). […]

Sirt1−/− MEFs = test: circadian gene expression in serum-shocked Sirt1−/− MEFs treated with SIRT1 inhibitors; format: cell-based, mouse
Protocol: as §2

BMAL1 Lys537 acetylation = BMAL1 Lys537 acetylation in JEG3 cells expressing Myc-CLOCK and Flag-Myc-BMAL1, HDAC inhibitor treatment; format: cell-based, human; conditions: NAM (10 mM) 16 hr
Protocol: (A) Class III HDAC inhibitor enhances BMAL1 Lys537 acetylation. JEG3 cells transfected with Myc-CLOCK and Flag-Myc-BMAL1 were treated with HDAC I and II inhibitor, TSA […], for 6 hr and HDAC III inhibitor, NAM (10 mM), for 16 hr before harvest. Immunoprecipitated BMAL1 proteins by FLAG antibody were subjected to SDS-PAGE and probed with acetylated BMAL1 or Myc antibodies.
as §1

SMILES | modulation of the CLOCK-SIRT1 interaction (CLOCK-SIRT1 interaction) | BMAL1 deacetylation by SIRT1 (SIRT1) | circadian acetylation of histone H3 Lys9/Lys14 at Dbp TSS [2] | also measured
NC(=O)c1ccc[n+]([C@@H]2O[C@H](COP(=O)([O-])OP(=O)(O)OC[C@H]3O[C@@H](n4cnc5c(N)ncnc54)[C@H](O)[C@@H]3O)[C@@H](O)[C@H]2O)c1 [NAD^+, nicotinamide adenine dinucleotide] | not significantly modulated | responsive | – | –
O=C1CCc2c(ccc3ccccc23)O1 [splitomicin] | not significantly modulated | – | loss in the circadian oscillation of acetylation, generating a noncyclic, high level of Lys9/Lys14 acetylation | dbp expression pattern (circadian oscillation) [1]: significantly broader phase and higher amplitude in the oscillation; also recorded: loss in stringency of circadian gene expression; effect of SIRT1 inhibitors on circadian gene expression in Sirt1−/− MEFs (Sirt1−/− MEFs; Sirt1−/− MEFs, data not shown): no effect
Oc1ccc(C=Cc2cc(O)cc(O)c2)cc1 [resveratrol] | not significantly modulated | – | – | –
NC(=O)c1cccnc1 [NAM, nicotinamide] | – | significantly attenuated | loss in the circadian oscillation of acetylation, generating a noncyclic, high level of Lys9/Lys14 acetylation | dbp expression pattern (circadian oscillation) ([1]; WT MEFs after serum shock, 10 mM NAM or splitomicin): significantly broader phase and higher amplitude in the oscillation; also recorded: loss in stringency of circadian gene expression; acetylation of BMAL1 at Lys537 (BMAL1 Lys537 acetylation): significantly increased; effect of SIRT1 inhibitors on circadian gene expression in Sirt1−/− MEFs (Sirt1−/− MEFs): no effect
CC(=O)N(O)CCCCCNC(=O)CCC(=O)N(O)CCCCCNC(=O)CCC(=O)N(O)CCCCCN [desferroxamine] | not significantly modulated | – | – | –
